What is called logP is a log measure of how a compound divides between an organic and an aqueous phase. Read a low logP as a more hydrophilic compound.

SMILES strings stand for the structures.

The text below walks through data of US11118109B2, “Organic luminogens” (THE HONG KONG UNIVERSITY OF SCIENCE AND TECHNOLOGY, priority 2017, dated 2021).

One data set is described as follows: LogP (Table 1). It is filed as physicochemical.
The next data set deals with HeLa cells. The data set can be described thus: Cell imaging of living HeLa cells by confocal microscopy, co-staining with MitoTracker Green FM and NucRed Live. The conditions noted are these: incubation 60 min at 37° C. It is filed as cell-based. How it is done: For cell culturing, HeLa cells were cultured in MEM containing 10% FBS and antibiotics (100 units/mL penicillin and 100 µg/mL streptomycin) in a 5% CO2 humidity incubator at 37° C. All culture mediums supplemented with 10% heat-inactivated FBS, 100 units/mL penicillin and 100 µg/mL streptomycin. Before experiment, the cells were precultured until confluence was reached.
For cell imaging, HeLa cells were grown overnight on a 35 mm petri dish with a cover slip at 37° C. After the removal of the medium, the adherent cells were washed twice with 1× phosphate buffered saline (PBS) buffer. 4MOTPO were then added to the chamber. After incubation for 1 h, then washed and incubated with MitoTracker® Green FM and NucRed® Live for 10 min, followed by further washing three times with 1×PBS buffer. The cells were imaged on Zeiss laser scanning confocal microscope and analyzed using ZEN 2009 software.
4MOTPO was tested in living HeLa cells to test the efficacy of the compound as a biosensor for bioimaging. Cells were incubated with 4MOTPO for 60 min at 37° C. and then washed and incubated with MitoTracker® Green FM and NucRed® Live for 10 min, followed by further washing.

The compound `COc1ccc(-c2oc(-c3ccccc3)[n+](-c3ccc(OC)cc3)c2-c2ccc(OC)cc2)cc1` [3MOTPO] yielded a logP in the data set “LogP (Table 1)” of 1.29.

`COc1ccc(-c2oc(-c3ccc(OC)cc3)[n+](-c3ccc(OC)cc3)c2-c2ccc(OC)cc2)cc1` [4MOTPO] had a log partition coefficient (logP) in the data set “LogP (Table 1)” of 1.35. The “subcellular localisation versus MitoTracker Green FM and NucRed Live” value in the data set on HeLa cells (co-staining 10 min) is reported as “can accumulate in mitochondria”. Moreover, the “fluorescence observed in cells (intracellular distribution)” value with HeLa cells (confocal microscopy) is “intense blue fluorescence was observed in the cellular cytoplasms”.

In the data set “LogP (Table 1)”, `COc1ccc(-[n+]2c(-c3ccccc3)oc(-c3ccccc3)c2-c2ccccc2)cc1` [1MOTPO] yielded a lipophilicity (logP) of 1.02.
